Test results reported in patent publication US7115648B2, “Indole-amide derivatives and their use as glycogen phosphorylase inhibitors” (AstraZeneca AB, priority 2002, dated 2006).

Key:
conscious dogs = conditions: cited from earlier work
hepatocytes = conditions: cited from earlier work
db/db and ob/ob mice = conditions: dose related; cited from earlier work
[1] = molecular target: T1, Human recombinant liver glycogen phosphorylase a (hrl GPa) (Homo sapiens, UniProt P06737); assay: Glycogen degradation multienzyme coupled assay (NADH fluorescence); format: biochemical; conditions: glycogen degradation direction
T1 sequence (P06737 1-847): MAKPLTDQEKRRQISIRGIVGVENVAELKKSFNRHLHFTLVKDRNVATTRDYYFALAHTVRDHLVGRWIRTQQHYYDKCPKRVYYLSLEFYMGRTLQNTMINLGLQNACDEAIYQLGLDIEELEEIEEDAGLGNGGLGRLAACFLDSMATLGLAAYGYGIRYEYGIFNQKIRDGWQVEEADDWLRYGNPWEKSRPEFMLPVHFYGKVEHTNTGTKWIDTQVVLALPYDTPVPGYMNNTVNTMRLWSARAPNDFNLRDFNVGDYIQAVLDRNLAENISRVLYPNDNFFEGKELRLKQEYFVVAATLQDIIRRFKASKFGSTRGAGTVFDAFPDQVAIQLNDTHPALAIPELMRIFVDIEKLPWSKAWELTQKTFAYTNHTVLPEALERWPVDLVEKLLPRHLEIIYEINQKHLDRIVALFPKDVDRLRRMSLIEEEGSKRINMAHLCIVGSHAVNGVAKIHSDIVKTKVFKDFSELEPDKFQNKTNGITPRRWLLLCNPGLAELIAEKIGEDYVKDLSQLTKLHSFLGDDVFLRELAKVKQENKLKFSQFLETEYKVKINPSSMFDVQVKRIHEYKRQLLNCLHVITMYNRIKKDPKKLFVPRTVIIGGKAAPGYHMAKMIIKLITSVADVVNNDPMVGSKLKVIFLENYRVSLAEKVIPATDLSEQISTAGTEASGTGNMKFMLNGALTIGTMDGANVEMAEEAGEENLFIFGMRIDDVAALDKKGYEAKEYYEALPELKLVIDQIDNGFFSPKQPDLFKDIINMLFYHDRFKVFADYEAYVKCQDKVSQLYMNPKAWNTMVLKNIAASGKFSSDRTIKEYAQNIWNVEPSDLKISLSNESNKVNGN
Experimental: The activity of the compounds is alternatively determined by measuring the inhibitory effect of the compounds on glycogen degradation, the production of glucose-1-phosphate from glycogen is monitored by the multienzyme coupled assay, as described in EP 0 846 464 A2, general method of Pesce et al (Pesce, M A, Bodourian, S H, Harris, R C, and Nicholson, J F (1977) Clinical Chemistry 23, […]). The reactions were in 384 well microplate format in a volume of 50 μl. The change in fluorescence due to the conversion of the co-factor NAD to NADH is measured at 340 nm excitation, 465 nm emission in a Tecan Ultra Multifunctional Microplate Reader. The reaction is in 50 mM HEPES, 3.5 mM KH2PO4, 2.5 mM MgCl2, 2.5 mM ethylene glycol-bis(b-aminoethyl ether) N,N,N′,N′-tetraacetic acid, 100 mM KCl, 8 mM D-(+)-glucose pH7.2, containing 0.5 mM dithiothreitol, the assay buffer solution. Human recombinant liver glycogen phosphorylase a (hrl GPa) 20 nM is pre-incubated in assay buffer solution with 6.25 mM NAD, 1.25 mg type III glycogen at 1.25 mg ml^−1 the reagent buffer, for 30 minutes. […] The non-inhibited activity of GPa is measured in the presence of 10 μl 5% DMSO in assay buffer solution and maximum inhibition measured in the presence of 5 mgs ml^−1 N-ethylmaleimide. […] Relative Fluoresence Units (RFUs) are measured at 340 nm excitation, 465 nm emission. […]

Row | IC50 [1] [nM] | SMILES | arterial plasma glucose following a glucagon challenge (conscious dogs) | hepatic glucose output following a glucagon challenge (conscious dogs) | glucagon stimulated glycogenolysis (hepatocytes) | glucose output in hepatocytes (hepatocytes) | plasma glucose concentration (db/db and ob/ob mice)
1 | – | CCN1C(C)=C(C(=O)OC(C)C)C(c2ccccc2Cl)C2=C1COC2=O (stereo not drawn) [Bay R 3401] | reduced significantly | reduced significantly | – | – | –
2 | – | O=C(N[C@@H](Cc1ccc(F)cc1)C(=O)N1CCC(O)CC1)c1cc2cc(Cl)ccc2[nH]1 [CP320626] | – | – | reduce | reduce | reduced, in a dose related manner
3 | – | CN(C)C(=O)[C@H](O)[C@H](Cc1ccccc1)NC(=O)c1cc2cc(Cl)ccc2[nH]1 [CP91149] | – | – | reduce | reduce | reduced, in a dose related manner
4 | 550 | O=C(NCC(=O)N(CCO)c1ccccc1)c1cc2cc(Cl)ccc2[nH]1 [Example 1, 5-Chloro-N-{2-[(2-hydroxyethyl)phenylamino]-2-oxoethyl}-1H-indole-2-carboxamide] | – | – | – | – | –
